This assay deals with T1, F508del (Homo sapiens, UniProt P13569, DEL508-508).
T1 construct: expressed in transfected cells
Put plainly: Protocol 1: membrane potential optical assay (FLIPR III, voltage sensing dye), identification of potentiator compounds. Type of assay: cell-based. As to conditions: Table 3, compounds of Table 1. An outline of the steps:
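Mouse NIH 3T3 fibroblasts stably expressing F508del, temperature-corrected at 27 °C for 24 h, pretreated with compound, then loaded with voltage-sensing redistribution dye. Forskolin was added in a single step with a chloride gradient (chloride-free gluconate bath; Bath Solution #1 HEPES pH 7.4). Membrane-potential fluorescence read on FLIPR III.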

T1 sequence (P13569 with tags, fused parts or gaps DEL508-508): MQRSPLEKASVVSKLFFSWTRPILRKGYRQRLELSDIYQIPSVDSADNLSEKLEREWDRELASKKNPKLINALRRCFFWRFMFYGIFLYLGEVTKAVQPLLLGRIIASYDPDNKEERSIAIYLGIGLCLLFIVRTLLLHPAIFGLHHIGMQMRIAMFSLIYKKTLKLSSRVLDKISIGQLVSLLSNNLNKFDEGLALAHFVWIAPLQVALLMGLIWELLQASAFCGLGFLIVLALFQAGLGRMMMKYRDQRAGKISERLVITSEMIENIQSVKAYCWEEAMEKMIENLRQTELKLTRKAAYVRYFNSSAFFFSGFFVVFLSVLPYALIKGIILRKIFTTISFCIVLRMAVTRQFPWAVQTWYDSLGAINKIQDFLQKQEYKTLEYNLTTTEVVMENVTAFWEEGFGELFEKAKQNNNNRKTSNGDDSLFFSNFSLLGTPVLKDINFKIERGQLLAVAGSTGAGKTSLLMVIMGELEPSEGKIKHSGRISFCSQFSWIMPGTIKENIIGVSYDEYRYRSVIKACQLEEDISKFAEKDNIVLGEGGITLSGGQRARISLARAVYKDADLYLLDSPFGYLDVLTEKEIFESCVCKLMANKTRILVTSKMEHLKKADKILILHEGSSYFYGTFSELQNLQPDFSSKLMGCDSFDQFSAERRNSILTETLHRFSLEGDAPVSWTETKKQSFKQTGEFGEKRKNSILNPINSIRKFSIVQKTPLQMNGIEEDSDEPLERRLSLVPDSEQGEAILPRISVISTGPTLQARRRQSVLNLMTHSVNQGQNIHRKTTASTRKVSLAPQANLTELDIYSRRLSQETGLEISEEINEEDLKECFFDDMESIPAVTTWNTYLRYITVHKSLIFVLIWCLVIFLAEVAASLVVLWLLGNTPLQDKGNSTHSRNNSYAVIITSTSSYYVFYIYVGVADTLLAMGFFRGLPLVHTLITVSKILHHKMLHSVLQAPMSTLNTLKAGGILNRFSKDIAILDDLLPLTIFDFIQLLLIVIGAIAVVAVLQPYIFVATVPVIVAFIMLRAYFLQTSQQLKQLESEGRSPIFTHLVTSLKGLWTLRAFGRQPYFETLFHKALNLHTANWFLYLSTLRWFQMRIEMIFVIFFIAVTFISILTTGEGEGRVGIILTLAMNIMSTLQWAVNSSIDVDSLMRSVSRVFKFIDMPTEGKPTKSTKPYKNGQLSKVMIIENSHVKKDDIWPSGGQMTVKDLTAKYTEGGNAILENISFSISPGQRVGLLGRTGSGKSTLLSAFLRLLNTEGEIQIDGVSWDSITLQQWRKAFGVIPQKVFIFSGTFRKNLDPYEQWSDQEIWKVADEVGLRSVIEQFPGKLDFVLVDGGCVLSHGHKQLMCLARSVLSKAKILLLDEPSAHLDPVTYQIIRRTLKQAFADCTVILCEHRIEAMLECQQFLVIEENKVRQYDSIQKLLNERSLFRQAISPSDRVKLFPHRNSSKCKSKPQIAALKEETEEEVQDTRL

In the case of `CC(C)COc1cc(F)cc(-c2ccc(C(=O)NS(=O)(=O)c3ccn[nH]3)c(N3CCCC(C4CC4)C3)n2)c1` (stereo not drawn) [Compound 1286, 2-(3-cyclopropyl-1-piperidyl)-6-(3-fluoro-5-isobutoxy-phenyl)-N-(1H-pyrazol-5-ylsulfonyl)pyridine-3-carboxamide], the EC30 entry is “+++ (“+++” means <3 uM)”.

As for `CCOc1cccc2c1CN(Cc1c(C)cc(C)cc1C)C2(C)C(=O)NS(=O)(=O)c1ccccn1` (stereo not drawn) [Compound 1474, 4-ethoxy-1-methyl-N-(2-pyridylsulfonyl)-2-[(2,4,6-trimethylphenyl)methyl]isoindoline-1-carboxamide], the EC30 entry was “+++ (“+++” means <3 uM)”.

As for `CC(C)CC(C)Oc1cccc(-c2ccc(C(=O)NS(=O)(=O)c3cccc(N)n3)c(N3CCCC3(C)C)n2)n1` (stereo not drawn) [Compound 846, N-[(6-amino-2-pyridyl)sulfonyl]-6-[6-(1,3-dimethylbutoxy)-2-pyridyl]-2-(2,2-dimethylpyrrolidin-1-yl)pyridine-3-carboxamide], the EC30 result is “+++ (“+++” means <3 uM)”.

For the compound `C[C@@H]1CN(c2nc([C@H]3CC[C@H](C(F)(F)F)CC3)ccc2C(=O)NS(=O)(=O)c2ccc[nH]c2=O)C(C)(C)C1` [Compound 1710, N-[(2-oxo-1H-pyridin-3-yl)sulfonyl]-6-[4-(trifluoromethyl)cyclohexyl]-2-[(4S)-2,2,4-trimethylpyrrolidin-1-yl]pyridine-3-carboxamide], the EC30 result is given as “+++ (“+++” means <3 uM)”.

Regarding `CCN(CC)c1ccc(C)c(-c2ccc(C(=O)NS(=O)(=O)c3cccc(N)n3)c(N3CC(C)CC3(C)C)n2)n1` (stereo not drawn) [Compound 1383, N-[(6-amino-2-pyridyl)sulfonyl]-6-[6-(diethylamino)-3-methyl-2-pyridyl]-2-(2,2,4-trimethylpyrrolidin-1-yl)pyridine-3-carboxamide], the EC30 result is given as “+++ (“+++” means <3 uM)”.

For the compound `CC(C)COc1cc(F)cc(-c2ccc(C(=O)NS(=O)(=O)c3cccc(O)c3)c(N3C[C@@H](C)CC3(C)C)n2)c1` [Compound 1885, 6-(3-fluoro-5-isobutoxy-phenyl)-N-(3-hydroxyphenyl)sulfonyl-2-[(4S)-2,2,4-trimethylpyrrolidin-1-yl]pyridine-3-carboxamide], the EC30 entry is reported as “+++ (“+++” means <3 uM)”.

As to `CCOc1cccc2c1CN(Cc1c(C)cc(C)cc1C)C2(C)C(=O)NS(=O)(=O)c1ccc2c(c1)CCN2` (stereo not drawn) [Compound 1422, 4-ethoxy-N-indolin-5-ylsulfonyl-1-methyl-2-[(2,4,6-trimethylphenyl)methyl]isoindoline-1-carboxamide], the EC30 entry is recorded as “+++ (“+++” means <3 uM)”.

As for `CC1CN(c2ncc(C3=CC4CCC3(C)C4(C)C)cc2C(=O)NS(=O)(=O)c2cccc(N)n2)C(C)(C)C1` (stereo not drawn) [Compound 1544, N-[(6-amino-2-pyridyl)sulfonyl]-5-(4,7,7-trimethyl-3-bicyclo[2.2.1]hept-2-enyl)-2-(2,2,4-trimethylpyrrolidin-1-yl)pyridine-3-carboxamide], the EC30 entry is reported as “+++ (“+++” means <3 uM)”.

Take `COc1cc(-c2ccc(C(=O)NS(=O)(=O)c3ccc[nH]c3=O)c(N3C[C@@H](C)CC3(C)C)n2)cc(F)c1F` [Compound 1914, 6-(3,4-difluoro-5-methoxy-phenyl)-N-[(2-oxo-1H-pyridin-3-yl)sulfonyl]-2-[(4S)-2,2,4-trimethylpyrrolidin-1-yl]pyridine-3-carboxamide]: the EC30 entry was “+++ (“+++” means <3 uM)”.

Regarding `CC1CN(c2ncccc2C(=O)NS(=O)(=O)c2cccc(OC(C)C3CCCCC3)n2)C(C)(C)C1` (stereo not drawn) [Compound 1919, N—[[6-(1-cyclohexylethoxy)-2-pyridyl]sulfonyl]-2-(2,2,4-trimethylpyrrolidin-1-yl)pyridine-3-carboxamide], the EC30 result is listed as “+++ (“+++” means <3 uM)”.

On to `C[C@@H]1CN(c2nc(-c3cc(O)cc(F)c3)ccc2C(=O)NS(=O)(=O)c2ccccc2)C(C)(C)C1` [Compound 1538, N-(benzenesulfonyl)-6-(3-fluoro-5-hydroxy-phenyl)-2-[(4S)-2,2,4-trimethylpyrrolidin-1-yl]pyridine-3-carboxamide], for which the EC30 entry is listed as “+ (“+” means greater than 10 uM)”.

In the case of `COc1cc(-c2ccc(C(=O)NS(=O)(=O)c3cccc(N)n3)c(Oc3c(C)cc(C)cc3C)n2)c(F)cn1` [Compound 1277, N-[(6-amino-2-pyridyl)sulfonyl]-6-(5-fluoro-2-methoxy-4-pyridyl)-2-(2,4,6-trimethylphenoxy)pyridine-3-carboxamide], the EC30 result is recorded as “+++ (“+++” means <3 uM)”.

With `Cc1ccc(-c2nc(C(C)(C)C)ccc2C(=O)NS(=O)(=O)c2ccc(C)cn2)cc1` [Compound 1355, 6-tert-butyl-N-[(5-methyl-2-pyridyl)sulfonyl]-2-(p-tolyl)pyridine-3-carboxamide], the EC30 result was “++ (“++” means between 3 uM and 10 uM)”.

Consider `CC(C)COc1cc(F)cc(-c2ccc(C(=O)NS(=O)(=O)c3cccc(N)n3)c(O[C@H]3CCOC3)n2)c1` [Compound 1464], for which the EC30 entry is “+++ (“+++” means <3 uM)”.

In the case of `CC1CN(c2ncc(-c3cccc(OC4CCCC4)c3)cc2C(=O)NS(=O)(=O)c2cccc(N)n2)C(C)(C)C1` (stereo not drawn) [Compound 1918, N-[(6-amino-2-pyridyl)sulfonyl]-5-[3-(cyclopentoxy)phenyl]-2-(2,2,4-trimethylpyrrolidin-1-yl)pyridine-3-carboxamide], the EC30 result is given as “+++ (“+++” means <3 uM)”.

As to `CC1CN(c2ncccc2C(=O)NS(=O)(=O)c2cccc(Oc3cccc4c3CCCC4)n2)C(C)(C)C1` (stereo not drawn) [Compound 1955, N-[(6-tetralin-5-yloxy-2-pyridyl)sulfonyl]-2-(2,2,4-trimethylpyrrolidin-1-yl)pyridine-3-carboxamide], the EC30 result is on record as “+++ (“+++” means <3 uM)”.

Take `Cc1cc(C)c(Oc2nc(C3=CCN(Cc4ccccc4)CC3)ccc2C(=O)NS(=O)(=O)c2cccc(N)n2)c(C)c1` [Compound 1389, N-[(6-amino-2-pyridyl)sulfonyl]-6-(1-benzyl-3,6-dihydro-2H-pyridin-4-yl)-2-(2,4,6-trimethylphenoxy)pyridine-3-carboxamide]: the EC30 entry is reported as “+++ (“+++” means <3 uM)”.

With `CC1CN(c2ncccc2C(=O)NS(=O)(=O)c2cccc(N(C)CCc3ccccc3)n2)C(C)(C)C1` (stereo not drawn) [Compound 1978, N—[[6-[methyl(phenethyl)amino]-2-pyridyl]sulfonyl]-2-(2,2,4-trimethylpyrrolidin-1-yl)pyridine-3-carboxamide], the EC30 result is given as “+++ (“+++” means <3 uM)”.

Turning to `CCOc1cccc2c1CN(Cc1ccc(F)cc1)C2(C)C(=O)NS(=O)(=O)c1cccc(N)n1` (stereo not drawn) [Compound 1433, N-[(6-amino-2-pyridyl)sulfonyl]-4-ethoxy-2-[(4-fluorophenyl)methyl]-1-methyl-isoindoline-1-carboxamide], the EC30 entry is “++ (“++” means between 3 uM and 10 uM)”.

On to `CCCCCc1ccc(C(=O)NS(=O)(=O)c2cccc(N)n2)c(Oc2c(C)cc(C)cc2C)n1` [Compound 862, N-[(6-amino-2-pyridyl)sulfonyl]-6-pentyl-2-(2,4,6-trimethylphenoxy)pyridine-3-carboxamide], for which the EC30 entry is recorded as “+++ (“+++” means <3 uM)”.

Turning to `CCOc1cccc2c1CN(Cc1c(C)cc(C)cc1C)C2(C)C(=O)NS(=O)(=O)c1cccnc1N` (stereo not drawn) [Compound 1591, N-[(2-amino-3-pyridyl)sulfonyl]-4-ethoxy-1-methyl-2-[(2,4,6-trimethylphenyl)methyl]isoindoline-1-carboxamide], the EC30 entry is reported as “+++ (“+++” means <3 uM)”.

For the origin of these results see patent US10758534B2 (Vertex Pharmaceuticals Incorporated, priority 2014, dated 2020).
